| melting point [°C] | SMILES |
| --- | --- |
| 228 to 234 | O=c1c2c(CC3CCOCC3)n[nH]c2c2cccnc2n1-c1ccccc1 |
| 158 to 160 | CCc1nnc2c(Cl)nc3ccccc3n12 |
| 245 to 246 | Cc1cc2c(=O)c(N3CCC(O)(c4ccc(F)cc4)CC3)coc2cc1OCc1ccccc1 |
| 176 | O=C(c1cccs1)c1cccc2nc(N[C@@H]3CCc4ccccc43)ccc12 |
| 291 to 296 | NS(=O)(=O)c1ccc(N2C(=O)CN(c3ccccc3)C2=O)cc1 |
| 90 to 92 | CCCOc1nc2cccc(C(=O)OCC)c2n1Cc1ccc(-c2ccccc2C#N)cc1 |
| 174 to 177 | COCCOC(=O)c1c(-c2ccncc2)[nH]c(-c2ccncc2)c1C |
| 178 to 184 | O=C(Cn1cnc2ccccc21)Nc1ccc(-n2nc(C(F)(F)F)cc2C2CC2)cc1 |
| 241 to 242 | O=C(Cn1c(=O)c(=O)[nH]c2cc(C(F)(F)F)c(-n3cccc3)cc21)NCc1ccccc1 |
| 135 to 136 | COC(=O)C=Cc1ccc(OC)c(OCc2nc(-c3ccccc3)oc2C)c1 |
| 277 to 279 | NC1=NC(=O)N(c2ccccc2)C1 |
| 199 to 200 | COC(=O)c1ccc2nc3c(c(C)nn3-c3ccccn3)c(Cl)c2c1 |
| 237 | Cc1cc(-c2cccc(C3=Nc4cc(O)c(-c5ccccc5F)cc4NC(=O)C3)c2)on1 |
| 196 to 200 | O=C(NC(Cc1ccccc1)C(=O)O)c1cc(-c2ccc(OCc3ccccc3)cc2)[nH]n1 (stereo unspecified) |
| 200 | CCn1cc(-c2ccc(F)c(C)c2)nc1COCc1ccccc1 |
| 150 to 151 | CCN(CC)Cc1nc2cc(OC)c(OC)cc2c(-c2ccc(OC)c(OC)c2)c1C(=O)c1ccccc1 |
| 211 to 212 | O=C(Cn1c(-c2ccc(Cl)cc2)nc2cccnc21)c1ccccc1 |
| 229 | CC(C)(C)OC(=O)N1CCC(OCc2ccccc2)C1CC(=O)Cn1cnc2cccnc2c1=O (stereo unspecified) |
| 82 to 90 | O=[N+]([O-])c1cc(OCc2ccccc2)c2ccccc2c1CCO |

| melting point [°C] | SMILES |
| --- | --- |
| 163 to 165 | CCOC(=O)Cn1c2ccccc2c2sccc(=O)c21 |
| 68 to 70 | O=C(c1ccccc1)N1CCC(CCl)CC1 |
| 192 to 193 | COC(=O)c1c(Cc2ccc(S(=O)(=O)NCCO)cc2)c(=O)c2ccc(Cl)cc2n1-c1ccccc1 |
| 144 to 146 | COc1ccc2c(c1)CCN(Cc1c[nH]c3ncccc13)C2 |
| 224 to 226 | O=C1CCC(N2Cc3cc(CNC(=O)Nc4cccc(Oc5ccccc5)c4)ccc3C2=O)C(=O)N1 (stereo unspecified) |
| 124 to 126 | CC(=O)NCCC1CCc2ccc3nc(-c4ccccc4)oc3c21 (stereo unspecified) |
| 144 to 146 | Clc1nc(Cl)c(-c2ccccc2)c(-c2ccccc2)n1 |
| 215 to 217 | CC12CCCc3cc(NS(=O)(=O)c4ccc(C(=O)O)cc4)cc(c31)CCC2 |
| 168 | COc1cc(CNC(=O)c2ccc3n2Cc2ccccc2N(C(=O)CSc2ccc(Br)cc2)C3)ccc1O |
| 195 | COc1ncc(Cl)cc1C1(O)CCN(CC23CC(c4ccccc42)c2ccccc23)CC1 |
| 138 to 139 | Cn1c(CNC[C@H]2CCCO2)cc2cc(NC(=O)c3ccc(OCC4CC4)cc3)ccc21 |
| 141 to 142 | CCC(CC)N(O)C(=O)Nc1ccccc1Oc1ccccc1 |
| 93 to 95 | O=C1C=CC2=C(C1)Cc1ccccc1OCO2 |
| 98 to 104 | COc1cc(OCCNC(=O)C2Cc3ccccc3N2S(=O)(=O)c2ccc(-c3cc(C(F)(F)F)ccc3Cl)cc2)ccc1C(=O)O (stereo unspecified) |
| 129 | Oc1cc(Br)ccc1/C=N/c1ccccc1 |
| 73 | CC(C)CCNS(=O)(=O)c1cc(C(=O)NC2CCc3ccccc32)ccc1Oc1ccccc1 (stereo unspecified) |
| 100 to 101 | Cc1oc(-c2cccc(C#N)c2)nc1CCl |
| 61 | Cc1ccc(C=C(C#N)c2ccccc2)cc1 |

Further lines, the molecule ahead of its results:

| SMILES | melting point [°C] |
| --- | --- |
| CC(=NC(C)c1ccc(Cl)cc1Cl)c1ccc(Cl)cc1Cl (stereo unspecified) | 77 to 85 |
| CC(C)(C)OC(=O)NC(C(=O)O)C1(O)CCSC1 (stereo unspecified) | 116 to 118 |
| CNC(=O)C(C)(C)OCc1cc(-c2ccc(Cl)cc2)no1 | 93 to 94 |
| CC(C)OCCNS(=O)(=O)NC(=O)OCc1ccccc1 | 88 to 89 |
| ClCCOc1cccc2nc[nH]c12 | 153 to 154 |
| CN1CC(CO)CC2(OCCO)c3cccc4[nH]cc(c34)CC12 (stereo unspecified) | 178 to 180 |
| CC(C)(C)NCC(O)COc1cccc(NC(N)=O)c1C(N)=O (stereo unspecified) | 189 to 191 |
| C=C(c1ccc(C(=O)O)s1)c1cc2cc(C(F)(F)F)ccc2n1S(=O)(=O)c1cccc(C(C)(C)C)c1 | 195 |
| CC(C)(C)OC(=O)CN1CCC(=O)N(CC(=O)OC(C)(C)C)CCC1=O | 180 |
| CC(=O)NCc1ccc(/C=C/C(c2cc(Cl)cc(Cl)c2)C(F)(F)F)cc1Cl (stereo unspecified) | 127 to 128 |
| COc1ccc(-c2c(Br)c(CN3C(=O)CCC3=O)nc3sc4c(c23)CCNC4)cc1 | 219 to 221 |
| CCN(CC)c1ccc(N(CC)CC)c(N2CCNCC2)n1 | 120 |
| COC(=O)C(NC(=O)C=Cc1ccccc1)C(=O)C(C)C (stereo unspecified) | 74 to 75 |
| C=Cc1cc(C)cc(C)c1CC(=O)N(C)C1(C(=O)OC)CCN(OC)CC1 | 160 to 162 |
| CC(C)C1C(=O)C(C)(C)C(=O)N1c1ccc(C#N)c(Cl)c1 (stereo unspecified) | 116 to 117 |
| CC1(C)CC(=O)Nc2ccc(Br)cc21 | 176 to 179 |
| CN(C)C=C(C#N)S(=O)(=O)c1ccccc1 | 108 to 110 |
| Cc1c(NC(=O)c2cc3c(s2)CCCC3)cccc1-c1cn(C)c(=O)c(Nc2ccc([C@@H](C(=O)N(C)C)N(C)C(C)C)cc2)n1 | 133 to 134 |
| CCCCCCCCCCCCCCCCCCNC(=O)C=Cc1ccc(O)cc1 | 114 |
| CN1CCC2(CC1)c1ccccc1C(C)(O)c1c(O)cccc12 (stereo unspecified) | 151 to 154 |
| CC(C)(C)OC(=O)ON=C(C#N)c1ccc(Cl)cc1 | 91 to 92 |
| O=C1C(=O)N(Cc2ccc(Nc3ncccn3)cc2)CCN1Cc1ccc(Nc2ncccn2)cc1 | 226 to 228 |

| SMILES | melting point [°C] |
| --- | --- |
| Cc1nc(-c2cc(C)c(OCCCc3cnc4ccccc4c3)c(C)c2)no1 | 105 to 107 |
| OCC1OC(n2cnc3c(NC4C=CCC4O)ncnc32)C(O)C1O (stereo unspecified) | 212 to 214 |
| CCC(CC)c1ccc(Cl)c2nc3n(c12)CCCCN3c1ccc(OC)nc1OC | 85 to 88 |
| N#Cc1cc(-c2ccc(Cl)cc2)c(Br)[nH]1 | 202 to 204 |
| CC(C)=CCOC(C)C1CC=C2C3=C(CCC21C)C1(C)CCC(O)C(C)(C)C1CC3 (stereo unspecified) | 117 to 120 |
| CCCCCCCCCCCCCCCCS(N)(=O)=O | 98 to 100 |
| C#CCN(C(=O)c1cc(C)oc1C(F)(F)F)S(=O)(=O)c1cccc(Cl)c1 | 70 to 72 |
| CN1CCCC1=NC(=O)Nc1ccc(Cl)c(C(F)(F)F)c1 | 175 |
| CC(C)(C)c1nc2cc(N3CCNCC3)c([N+](=O)[O-])cc2s1 | 144 to 146 |
| CN1CC(c2ccno2)CC2c3cccc4[nH]cc(c34)CC21 (stereo unspecified) | 132 to 134 |
| CC(C)Oc1cc(-c2cn(C)c(C(F)(F)F)cc2=O)c(F)cc1Cl | 150 to 151 |
| CCC(CC)Nc1c([N+](=O)[O-])cc(C)c(CO)c1[N+](=O)[O-] | 51 to 54 |
| CCOC(=O)N1CCN(c2ccc(C3=NNC(=O)CC3C)cc2Cl)CC1 (stereo unspecified) | 154 to 156 |
| O=C(O)CCCC#CCC1=CC(O)CC1=O (stereo unspecified) | 65 to 71 |
| COc1cc(C(=O)NC2CN(C)C2)ccc1Nc1ncc2c(n1)N(C1CCCC1)CC(F)(F)C(=O)N2C | 157 to 162 |
| N#CC1CN1C(=O)NC(=O)c1ccccc1 (stereo unspecified) | 144 to 146 |
| N#CC(Cc1cccc2c1OCO2)C(=O)O (stereo unspecified) | 118 |
| Cn1c(=O)sc2cc(N)ccc21 | 188 to 190 |
| CCCCCc1c(C(C)C)nc(C(C)C)c(CO)c1-c1ccccc1O | 126 |
| COC(=O)C1CCN2C(=O)C(=O)c3cc(Br)cc1c32 (stereo unspecified) | 150 to 151 |
| CCOP(=O)(CCN1CCC(N(CCN)S(=O)(=O)c2ccc(Nc3nccc(Nc4ccc(F)cc4)n3)cc2)CC1)OCC | 90 |
| O=C(NCc1nc(O)cc(O)n1)c1cccs1 | 270 to 275 |

| SMILES | melting point [°C] |
| --- | --- |
| CC(NC(=O)Cc1cc(F)cc(F)c1)C(=O)C1(N)N=C(c2ccccc2F)c2ccccc2N(C)C1=O (stereo unspecified) | 185 to 188 |
| O=S(=O)(Nc1ncnc(Cl)c1-c1ccc(OCc2ccccc2)cc1)c1ccc(Cl)cc1 | 234 to 236 |
| Cc1cccc2nc3c(c(N)c12)CCCC3 | 143 to 145 |
| Cc1c(N)cccc1OC[C@@H]1CCCN1C(=O)OC(C)(C)C | 110 |
| COc1ccc([N+](=O)[O-])c2c1CC(C)(C)O2 | 135 to 136 |
| CCCCCCCCCCCC(=O)OCC(COCc1ccccc1)OC(=O)CCCCCCCCCCC (stereo unspecified) | 30 to 31 |
| NC1=NC(=O)N(C2CCCCC2)CC1Br (stereo unspecified) | 152 to 156 |
| NC(=O)NC1CCC(Cl)CC1 (stereo unspecified) | 177 to 178 |
| C=CCCC(F)c1cc(C2(c3ccc(OC(F)F)cc3)N=C(N)N(C)C2=O)ccc1F (stereo unspecified) | 50 to 55 |
| O=S(=O)(CCN1CCCCC1)Nc1cc(C(c2cc(F)ccc2F)S(=O)(=O)c2ccc(Cl)cc2)c(Cl)cn1 (stereo unspecified) | 200 to 203 |
| Cn1cc(Oc2cccc(C(F)(F)F)c2)c(=O)c(-c2cccc(C(F)(F)F)c2)c1 | 93 to 95 |
| CN1CCOC2c3cccc4[nH]cc(c34)CC21 (stereo unspecified) | 175 to 177 |
| CN1CC2Cc3ccc(Cl)cc3C(O)C2C1 (stereo unspecified) | 178 to 182 |
| CCN(CC)C(=O)Nc1ccc(S(=O)(=O)N2C(=O)C(N)(c3ccccc3Cl)c3cc(Cl)ccc32)cc1 (stereo unspecified) | 195 to 196 |
| COC(=O)N1CCCSC1=C[N+](=O)[O-] | 93 to 95 |
| Nc1ncc2cc(-c3ccncc3)c(N)nc2n1 | > 340 |
| CCOC(=O)COc1cc(O)c2c(c1)NC1(CCCCC1)CC2=O | 134 to 135 |
| COCc1c[nH]c2c([N+](=O)[O-])cccc2c1=O | > 250 |
| CN(C)Cc1nc(CSCCNC(=C[N+](=O)[O-])NCC(O)c2ccccc2)cs1 (stereo unspecified) | 100 to 101 |
| CC(C)C(=O)c1cn(C)cc(-c2cccc(C(F)(F)F)c2)c1=O | 104 to 105 |

— a melting point compilation (Tetko et al.; mined from patent text by program, amines drawn as free bases though some values may be those of a salt)
